Test results published in ChEMBL document CHEMBL1139879, “Indolizidine alkaloids with delta-opioid receptor binding affinity from the leaves of Elaeocarpus fuscoides” (J Nat Prod, 2007).

target: Delta-type opioid receptor (Homo sapiens, UniProt P41143); test: Displacement of [125I]deltorphin 2 from human recombinant delta opioid receptor expressed in HEK cell membranes; design: species or system HEK293
Sequence (P41143 whole entry): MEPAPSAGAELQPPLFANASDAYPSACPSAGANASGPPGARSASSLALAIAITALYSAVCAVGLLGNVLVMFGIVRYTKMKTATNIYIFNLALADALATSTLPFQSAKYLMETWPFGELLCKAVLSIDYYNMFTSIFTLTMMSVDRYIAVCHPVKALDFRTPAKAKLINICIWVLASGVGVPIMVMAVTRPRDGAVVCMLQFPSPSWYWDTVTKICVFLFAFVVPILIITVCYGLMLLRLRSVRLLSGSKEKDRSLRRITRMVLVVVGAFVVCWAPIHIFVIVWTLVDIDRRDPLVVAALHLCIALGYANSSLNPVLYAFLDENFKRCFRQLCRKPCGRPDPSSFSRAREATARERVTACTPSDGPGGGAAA

| Compound | IC50 [µM] |
| --- | --- |
| Cc1cccc2c1C(=O)[C@H]1[C@H](CCN3CCC[C@H]13)O2 [ISOELAEOCARPINE] | 13.6 |
| Cc1cccc(O)c1C(=O)C1=CCCN2CCC[C@H]12 [ELAEOCARPENINE] | 2.74 |
| Cc1cccc2c1C(=O)C1[C@H]3CCCN3CC[C@H]1O2 (some centres undefined) [ELAEOCARPINE] | 86.4 |
| Cc1cccc(O)c1C(=O)[C@@H]1[C@H]2CCCN2CC[C@@H]1O [ISOELAEOCARPICINE] | 35.1 |
